SMILES strings stand for the structures. Read-outs that look alike come from different tables or passages of the source.

For one test, the system named is LNcap. As to the kind of experiment: CCK-8 tumor cell proliferation, LNcap. The class given is cell-based, Human. The note with it: 96 h, read-out: IC50 for inhibiting the proliferation of tumor cells, LNcap. On the procedure: (§1) Determination of half inhibitory concentration (IC50) of the compounds against tumor cells:
(§2) The tumor cells used herein were cultured in a cell culture medium listed in table 6 at 37° C. in an incubator with 5% CO2. Prior to experimentation, all cells used were correctly identified by STR profiling, and tested negative for mycoplasma through routine screenings.
(§3) IC50 values of the compounds of the present disclosure (including the compounds in Table 4 and compounds of examples 1-72) were measured using the Meilun Cell Counting Kit-S kit from Dalian Meilun Biotech Co., Ltd. Assay details are as follows: tumor cells were seeded in a 96-well plate at a density listed in Table 7. After 24 h, 100 μL of the inoculated cells were treated with 0.5 μL of the compounds of the present disclosure (including the compounds in Table 4 and compounds of examples 1-72) at 10 different successively decreasing concentrations (starting at the highest concentration of 10 μM; 5-fold serial dilutions). After the cells were treated with the compounds of the present disclosure for a period of time (the treatment times listed in Table 7), the cell viability detection reagent was added to the culture medium for cell viability assessment according to the instructions provided with the CCK-8 kit. […] The growth inhibition of the compounds of the present disclosure on cells was plotted by Prism Graphpad software, and the IC50 values of the compounds of the present disclosure were calculated therefrom.

The test system of the next test is A549. As to the kind of experiment: CCK-8 tumor cell proliferation, A549. The class given is cell-based, Human. The following applies: A549, 96 h, read-out: IC50 for inhibiting the proliferation of tumor cells, A549. On the procedure:
as §1, §2, §3

The subject of a further test is PC-3. As to the kind of experiment: CCK-8 tumor cell proliferation, PC-3. In kind it is cell-based, Human. The note with it: Homo sapiens, PC-3, 96 h, read-out: IC50 for inhibiting the proliferation of tumor cells, PC-3. On the procedure:
as §1
(§4) The tumor cells used herein were cultured in a cell culture medium listed in table 6 at 37° C. in an incubator with 5% CO2.
(§5) After the cells were treated with the compounds of the present disclosure for a period of time (the treatment times listed in Table 7), the cell viability detection reagent was added to the culture medium for cell viability assessment according to the instructions provided with the CCK-8 kit. […] The growth inhibition of the compounds of the present disclosure on cells was plotted by Prism Graphpad software, and the IC50 values of the compounds of the present disclosure were calculated therefrom.

For a further test, the system named is MGC80-3. The test is described as follows: CCK-8 tumor cell proliferation, MGC80-3. The note with it: read-out: IC50 for inhibiting the proliferation of tumor cells, MGC80-3. In kind it is cell-based, Human. On the procedure:
as §1, §2, §3

The subject of the next test is DU-145. The test is described as follows: CCK-8 tumor cell proliferation, DU-145. The class given is cell-based, Human. The note with it: DU-145, 96 h, read-out: IC50 for inhibiting the proliferation of tumor cells, DU-145. On the procedure: as §1, §4, §5
The test system of the next test is WSU-DLCL2. As to the kind of experiment: CCK-8 tumor cell proliferation, WSU-DLCL2. The class given is cell-based, Human. The note with it: Homo sapiens, WSUDLCL2, WSU-DLCL2, 96 h, read-out: IC50 for inhibiting the proliferation of tumor cells, WSU-DLCL2. On the procedure:
as §1, §4, §5

For a further test, the system named is Hep3B2.1-7. The test is described as follows: CCK-8 tumor cell proliferation, Hep3B2.1-7. The note with it: Hep3B2.1-7, 96 h, read-out: IC50 for inhibiting the proliferation of tumor cells, Hep3B2.1-7. The class given is cell-based, Human. On the procedure:
as §1, §2, §3

Another test deals with MM.1R. As to the kind of experiment: CCK-8 tumor cell proliferation, MM.1R. In kind it is cell-based. The note with it: 72 h, read-out: IC50 for inhibiting the proliferation of tumor cells, MM.1R. On the procedure: as §1, §4, §5
The next test deals with SU-DHL-6. The test is described as follows: CCK-8 tumor cell proliferation, SU-DHL-6. The following applies: Homo sapiens, SU-DHL-6, 72 h, read-out: IC50 for inhibiting the proliferation of tumor cells, SU-DHL-6. The class given is cell-based. On the procedure: as §1, §4, §5
For the next test, the system named is Kasumi-1. As to the kind of experiment: CCK-8 tumor cell proliferation, Kasumi-1. The class given is cell-based. The note with it: Homo sapiens, Kasumi-1, 72 h, read-out: IC50 for inhibiting the proliferation of tumor cells, Kasumi-1. On the procedure:
as §1, §4, §5

For a further test, the system named is SW620. The test is described as follows: CCK-8 tumor cell proliferation, SW620. In kind it is cell-based, Human. The following applies: SW620, 96 h, read-out: IC50 for inhibiting the proliferation of tumor cells, SW620. On the procedure:
as §1, §4, §5

[1] abbreviates: Homo sapiens, MGC-803, MGC80-3, 96 h.

Take `CC1(C)[C@H](NC(=O)c2ccc(N3CCC(CN4CC5CCC(C4)N5c4cc5c(cc4F)C(=O)N(C4CCC(=O)NC4=O)C5=O)CC3)nn2)C(C)(C)[C@H]1Oc1ccc(C#N)c(Cl)c1` (stereo partly drawn) [GT-03398, N-((1r,3r)-3-(3-chloro-4-cyanophenoxy)-2,2,4,4-tetramethylcyclobutyl)-6-(4-((8-(2-(2,6-dioxopiperidin-3-yl)-6-fluoro-1,3-dioxoisoindolin-5-yl)-3,8-diazabicyclo[3.2.1]octan-3-yl)methyl)piperidin-1-yl)pyridazine-3-carboxamide]: the IC50 in the test on LNcap (Homo sapiens) is 50 to 100 nM; in the test on A549 (Homo sapiens), 50 to 100 nM; in the test with PC-3, not above 50 nM; in the test on MGC80-3 (setting [1]) it was not above 50 nM; in the test on DU-145 (Homo sapiens) it was 50 to 100 nM.
Regarding `CC1(C)[C@H](NC(=O)c2ccc(N3CCC(CN4CC5CCC(C4)N5c4cc5c(cc4F)C(=O)N(C4CCC(=O)NC4=O)C5=O)CC3)nc2)C(C)(C)[C@H]1Oc1ccc(C#N)c(Cl)c1` (stereo partly drawn) [GT-03402, N-((1r,3r)-3-(3-chloro-4-cyanophenoxy)-2,2,4,4-tetramethylcyclobutyl)-6-(4-((8-(2-(2,6-dioxopiperidin-3-yl)-6-fluoro-1,3-dioxoisoindolin-5-yl)-3,8-diazabicyclo[3.2.1]octan-3-yl)methyl)piperidin-1-yl)nicotinamide], the IC50 in the test with LNcap (Homo sapiens) was 50 to 100 nM; in the test on A549 (Homo sapiens), 100 to 500 nM; in the test with PC-3, 50 to 100 nM; with WSU-DLCL2, 100 to 500 nM; with DU-145 (Homo sapiens) it was 50 to 100 nM.
As to `CC1(C)[C@H](NC(=O)c2ccc(N3CCC(CN4CC5CCC4CN5c4ccc5c(c4)C(=O)N(C4CCC(=O)NC4=O)C5=O)CC3)nc2)C(C)(C)[C@H]1Oc1ccc(C#N)c(Cl)c1` (stereo partly drawn) [GT-03481, N-((1r,3r)-3-(3-chloro-4-cyanophenoxy)-2,2,4,4-tetramethylcyclobutyl)-6-(4-((5-(2-(2,6-dioxopiperidin-3-yl)-1,3-dioxoisoindolin-5-yl)-2,5-diazabicyclo[2.2.2]octan-2-yl)methyl)piperidin-1-yl)nicotinamide], the IC50 was 100 to 500 nM in the test with LNcap (Homo sapiens); 100 to 500 nM with A549 (Homo sapiens); 100 to 500 nM with MGC80-3 (setting [1]); not above 50 nM in the test on Hep3B2.1-7 (Homo sapiens); 100 to 500 nM in the test on WSU-DLCL2.
For the compound `N#Cc1ccc(OC2CCC(NC(=O)c3ccc(N4CCC(CN5CC6CCC(C5)N6c5ccc6c(c5)C(=O)N(C5CCC(=O)NC5=O)C6=O)CC4)nn3)CC2)cc1Cl` (stereo not drawn) [GT-03488, N-((1r,4r)-4-(3-chloro-4-cyanophenoxy)cyclohexyl)-6-(4-((8-(2-(2,6-dioxopiperidin-3-yl)-1,3-dioxoisoindolin-5-yl)-3,8-diazabicyclo[3.2.1]octan-3-yl)methyl)piperidin-1-yl)pyridazine-3-carboxamide], the IC50 in the test with MM.1R is not above 50 nM; with LNcap, not above 50 nM; in the test with A549 it was 50 to 100 nM; in the test with MGC80-3 (MGC80-3, 96 h) it was not above 50 nM; in the test with Hep3B2.1-7, not above 50 nM; in the test with DU-145, 50 to 100 nM.
As to `CC1(C)[C@H](NC(=O)c2ccc(N3CCC(CN4CC5CCC4CN5c4cc5c(cc4F)C(=O)N(C4CCC(=O)NC4=O)C5=O)CC3)nc2)C(C)(C)[C@H]1Oc1ccc(C#N)c(Cl)c1` (stereo partly drawn) [GT-03494, N-((1r,3r)-3-(3-chloro-4-cyanophenoxy)-2,2,4,4-tetramethylcyclobutyl)-6-(4-((5-(2-(2,6-dioxopiperidin-3-yl)-6-fluoro-1,3-dioxoisoindolin-5-yl)-2,5-diazabicyclo[2.2.2]octan-2-yl)methyl)piperidin-1-yl)nicotinamide], the IC50 in the test on LNcap (Homo sapiens) lay in the range of 50 to 100 nM; in the test on A549 (Homo sapiens), 100 to 500 nM; in the test with MGC80-3 (setting [1]), 50 to 100 nM; in the test on Hep3B2.1-7 (Homo sapiens) it was 50 to 100 nM; in the test on WSU-DLCL2, 50 to 100 nM; in the test with DU-145 (Homo sapiens) it was 1000 to 5000 nM.
Consider `Cc1nc(Nc2ncc(C(=O)Nc3c(C)cccc3Cl)s2)cc(N2CCC(CN3CC4CCC(C3)N4c3cc4c(cc3F)C(=O)N(C3CCC(=O)NC3=O)C4=O)CC2)n1` (stereo not drawn) [GT-03627, N-(2-chloro-6-methylphenyl)-2-((6-(4-((8-(2-(2,6-dioxopiperidin-3-yl)-6-fluoro-1,3-dioxoisoindolin-5-yl)-3,8-diazabicyclo[3.2.1]octan-3-yl)methyl)piperidin-1-yl)-2-methylpyrimidin-4-yl)amino)thiazole-5-carboxamide], for which the IC50 in the test on SU-DHL-6 and in the test on Kasumi-1 was 100 to 500 nM throughout.
In the case of `Cc1nc(Nc2ncc(C(=O)Nc3c(C)cccc3Cl)s2)cc(N2CCC(CN3CC4CCC(C3)N4c3ccc4c(c3)C(=O)N(C3CCC(=O)NC3=O)C4=O)CC2)n1` (stereo not drawn) [GT-03629, N-(2-chloro-6-methylphenyl)-2-((6-(4-((8-(2-(2,6-dioxopiperidin-3-yl)-1,3-dioxoisoindolin-5-yl)-3,8-diazabicyclo[3.2.1]octan-3-yl)methyl)piperidin-1-yl)-2-methylpyrimidin-4-yl)amino)thiazole-5-carboxamide], the IC50 in the test with SU-DHL-6 and in the test with Kasumi-1 was 100 to 500 nM each time.
`Cc1nc(Nc2ncc(C(=O)Nc3c(C)cccc3Cl)s2)cc(N2CCC(CN3CC4CC(C3)N4c3ccc4c(c3)C(=O)N(C3CCC(=O)NC3=O)C4=O)CC2)n1` (stereo not drawn) [GT-03630, N-(2-chloro-6-methylphenyl)-2-((6-(4-((6-(2-(2,6-dioxopiperidin-3-yl)-1,3-dioxoisoindolin-5-yl)-3,6-diazabicyclo[3.1.1]heptan-3-yl)methyl)piperidin-1-yl)-2-methylpyrimidin-4-yl)amino)thiazole-5-carboxamide]: the IC50 in the test on SU-DHL-6 was 100 to 500 nM; with Kasumi-1, not above 50 nM.
Regarding `CN(C)C(=O)c1cc2cnc(Nc3ccc(N4CCC(CN5CC6CCC(C5)N6c5ccc6c(c5)C(=O)N(C5CCC(=O)NC5=O)C6=O)CC4)cn3)nc2n1C1CCCC1` (stereo not drawn) [GT-03651, 7-cyclopentyl-2-((5-(4-((8-(2-(2,6-dioxopiperidin-3-yl)-1,3-dioxoisoindolin-5-yl)-3,8-diazabicyclo[3.2.1]octan-3-yl)methyl)piperidin-1-yl)pyridin-2-yl)amino)-N,N-dimethyl-7H-pyrrolo[2,3-d]pyrimidine-6-carboxamide], the IC50 in the test on SW620 (Homo sapiens, SW-620, CCK-8, Table 9 (CDK4/6-based)) lay within 100 to 500 nM.
With `N#Cc1ccc(OC2CCC(NC(=O)c3ccc(N4CCC(CN5CC6CCC5CN6c5cc6c(cc5F)C(=O)N(C5CCC(=O)NC5=O)C6=O)CC4)nn3)CC2)cc1Cl` (stereo not drawn) [GT-03773, N-((1r,4r)-4-(3-chloro-4-cyanophenoxy)cyclohexyl)-6-(4-((5-(2-(2,6-dioxopiperidin-3-yl)-6-fluoro-1,3-dioxoisoindolin-5-yl)-2,5-diazabicyclo[2.2.2]octan-2-yl)methyl)piperidin-1-yl)pyridazine-3-carboxamide], the IC50 with SW620 (CCK-8, Table 8 (AR-based)) is 100 to 500 nM.
For the compound `CN(C)C(=O)c1cc2cnc(Nc3ccc(N4CCNCC4)cn3)nc2n1C1CCCC1` [Ribociclib, reference compound], the IC50 in the test on SW620 (Homo sapiens, SW-620, CCK-8, Table 9, numeric value) was more than 10000 nM.

The values are drawn from patent publication US20250243210A1, “CRBN E3 LIGASE LIGAND COMPOUND, PROTEIN DEGRADER DEVELOPED BASED THEREON AND THEIR APPLICATIONS” (GLUETACS THERAPEUTICS (SHANGHAI) CO., LTD., priority 2021, published 2025).
